Article PMC7419507, “In vitro Cas9-assisted editing of modular polyketide synthase genes to produce desired natural product derivatives” (Nature Communications, 2020)
Several values for one entry are separate records, joined by “and”; a condition that tells them apart may be missing. Equal entries are not always repeated.

Columns and labels:
[1] = Cytotoxicity assay (CellTiter-Glo, 72 h), SKOV-3; format: cell-based, human; conditions: human, raw replicate data, read-out: SKOV3 viability (%)
Protocol: (§1) Jurkat cells were cultured in RPMI1640 medium supplemented with 10% foetal bovine serum, penicillin (50 U/ml), streptomycin (50 μg/ml), and Glutamax. SKOV-3 cells were cultured in DMEM medium supplemented with 10% fetal bovine serum, penicillin (50 U/ml), and streptomycin (50 μg/ml). MESO-1 cells were cultured in RPMI1640 medium supplemented with 10% fetal bovine serum, penicillin (50 U/ml), and streptomycin (50 μg/ml). All cell lines were seeded in a 384-well plate at a density of 1000 cells/well in 20 μl of media and incubated at 37 °C in a humidified incubator with 5% CO2. After 4 h, 2-fold dilution samples resolved in DMSO were added to the cell culture at the concentration of 0.5% (0.1 μl) and incubated for 72 h. Cell viabilities were measured using a CellTiter-Glo luminescent cell viability assay and EnVision multilabel plate reader.

[2] = Cytotoxicity assay (CellTiter-Glo, 72 h), MESO-1; format: cell-based; conditions: human
Protocol: as §1

[3] = tested on: malignant pleural mesothelioma MESO-1 cells; assay: Cytotoxicity assay (CellTiter-Glo, 72 h), MESO-1; format: cell-based; conditions: raw replicate data
Protocol: as §1

CO[C@H]1C[C@@H]2CC[C@@H](C)[C@@](O)(O2)C(=O)C(=O)N2CCCC[C@H]2C(=O)O[C@H]([C@H](C)C[C@@H]2CC[C@@H](O)[C@H](OC)C2)CC(=O)[C@H](C)/C=C(\C)[C@@H](O)[C@@H](OC)C(=O)[C@H](C)C[C@H](C)/C=C/C=C/C=C/1C [Compound 1, rapamycin, reference compound]
viability at 72 h, 0.0488281 uM ([1]; SKOV-3 cells (ovarian adenocarcinoma), conc 0.0488281 uM): 61.1%
viability at 72 h, 0.0976562 uM ([1]; SKOV-3 cells (ovarian adenocarcinoma), conc 0.0976562 uM): 61.7%
viability at 72 h, 0.195312 uM ([1]; SKOV-3 cells (ovarian adenocarcinoma), conc 0.195312 uM): 59.4%
viability at 72 h, 0.390625 uM ([1]; SKOV-3 cells (ovarian adenocarcinoma), conc 0.390625 uM): 59.7%
viability at 72 h, 12.5 uM ([1]; SKOV-3 cells (ovarian adenocarcinoma), conc 12.5 uM): 57.5%
viability at 72 h, 25 uM ([1]; SKOV-3 cells (ovarian adenocarcinoma), conc 25 uM): 54.8%
viability at 72 h, 0.78125 uM ([1]; SKOV-3 ovarian adenocarcinoma cells, conc 0.78125 uM): 55.3%
viability at 72 h, 1.5625 uM ([1]; SKOV-3 ovarian adenocarcinoma cells, conc 1.5625 uM): 58.8%
viability at 72 h, 3.125 uM ([1]; SKOV-3 ovarian adenocarcinoma cells, conc 3.125 uM): 57.4%
viability at 72 h, 6.25 uM ([1]; SKOV-3 ovarian adenocarcinoma cells, conc 6.25 uM): 63.1%
viability at 72 h ([2]; MESO-1 cells (malignant pleural mesothelioma), MESO-1 cells, 72 h, read-out: Plateau level of cell viability in the dose-response curve): ~75%
viability at 72 h, 9.53674e-05 uM ([2]; MESO-1 malignant pleural mesothelioma cells, conc 9.53674e-5 uM, raw replicate data, read-out: MESO1 viability (%)): 79%
viability at 72 h, 0.000190735 uM ([2]; MESO-1 malignant pleural mesothelioma cells, conc 0.000190735 uM, raw replicate data, read-out: MESO1 viability (%)): 73.6%
viability at 72 h, 0.00038147 uM ([2]; MESO-1 malignant pleural mesothelioma cells, conc 0.00038147 uM, raw replicate data, read-out: MESO1 viability (%)): 83.4%
viability at 72 h, 0.000762939 uM ([2]; MESO-1 malignant pleural mesothelioma cells, conc 0.000762939 uM, raw replicate data, read-out: MESO1 viability (%)): 73.1%
viability at 72 h, 0.00152588 uM ([2]; MESO-1 malignant pleural mesothelioma cells, conc 0.00152588 uM, raw replicate data, read-out: MESO1 viability (%)): 116%
viability at 72 h, 0.00305176 uM ([2]; MESO-1 malignant pleural mesothelioma cells, conc 0.00305176 uM, raw replicate data, read-out: MESO1 viability (%)): 69.5%
viability at 72 h, 0.00610352 uM ([2]; MESO-1 malignant pleural mesothelioma cells, conc 0.00610352 uM, raw replicate data, read-out: MESO1 viability (%)): 78.3%
viability at 72 h, 0.012207 uM ([2]; MESO-1 malignant pleural mesothelioma cells, conc 0.012207 uM, raw replicate data, read-out: MESO1 viability (%)): 77.6%
viability at 72 h, 0.0244141 uM ([2]; MESO-1 malignant pleural mesothelioma cells, conc 0.0244141 uM, raw replicate data, read-out: MESO1 viability (%)): 75.2%
viability at 72 h, 0.0488281 uM ([2]; MESO-1 malignant pleural mesothelioma cells, conc 0.0488281 uM, raw replicate data, read-out: MESO1 viability (%)): 75%
viability at 72 h, 0.0976562 uM ([2]; MESO-1 malignant pleural mesothelioma cells, conc 0.0976562 uM, raw replicate data, read-out: MESO1 viability (%)): 77%
viability at 72 h, 0.195312 uM ([2]; MESO-1 malignant pleural mesothelioma cells, conc 0.195312 uM, raw replicate data, read-out: MESO1 viability (%)): 74.8%
viability at 72 h, 0.390625 uM ([2]; MESO-1 malignant pleural mesothelioma cells, conc 0.390625 uM, raw replicate data, read-out: MESO1 viability (%)): 75.6%
viability at 72 h, 0.78125 uM ([2]; MESO-1 malignant pleural mesothelioma cells, conc 0.78125 uM, raw replicate data, read-out: MESO1 viability (%)): 68.5%
viability at 72 h, 1.5625 uM ([2]; MESO-1 malignant pleural mesothelioma cells, conc 1.5625 uM, raw replicate data, read-out: MESO1 viability (%)): 76.4%
viability at 72 h, 3.125 uM ([2]; MESO-1 malignant pleural mesothelioma cells, conc 3.125 uM, raw replicate data, read-out: MESO1 viability (%)): 73.6%
viability at 72 h, 6.25 uM ([2]; MESO-1 malignant pleural mesothelioma cells, conc 6.25 uM, raw replicate data, read-out: MESO1 viability (%)): 74.3%
viability at 72 h, 12.5 uM ([2]; MESO-1 malignant pleural mesothelioma cells, conc 12.5 uM, raw replicate data, read-out: MESO1 viability (%)): 71.1%
viability at 72 h, 25 uM ([2]; MESO-1 malignant pleural mesothelioma cells, conc 25 uM, raw replicate data, read-out: MESO1 viability (%)): 63.9%
viability at 72 h, 50 uM ([2]; MESO-1 malignant pleural mesothelioma cells, conc 50 uM, raw replicate data, read-out: MESO1 viability (%)): 1.1%
MESO1 viability (%) ([3]; conc 9.53674e-5 uM): 78.2% and 78.1%
MESO1 viability (%) ([3]; conc 0.000190735 uM): 77.7% and 77.2%
MESO1 viability (%) ([3]; conc 0.00038147 uM): 77.9% and 86.0%
MESO1 viability (%) ([3]; conc 0.000762939 uM): 70.2% and 70.0%
MESO1 viability (%) ([3]; conc 0.00152588 uM): 112.8% and 111.2%
MESO1 viability (%) ([3]; conc 0.00305176 uM): 76.5%
MESO1 viability (%) ([3]; conc 0.00610352 uM): 75.4% and 78.7%
MESO1 viability (%) ([3]; conc 0.012207 uM): 72.8% and 76.2%
MESO1 viability (%) ([3]; conc 0.0244141 uM): 77.3%
MESO1 viability (%) ([3]; conc 0.0488281 uM): 71.0% and 73.9%
MESO1 viability (%) ([3]; conc 0.0976562 uM): 74.5% and 75.3%
MESO1 viability (%) ([3]; conc 0.195312 uM): 73.7% and 71.3%
MESO1 viability (%) ([3]; conc 0.390625 uM): 76.1%
MESO1 viability (%) ([3]; conc 0.78125 uM): 74.4% and 74.1%
MESO1 viability (%) ([3]; conc 1.5625 uM): 76.3%
MESO1 viability (%) ([3]; conc 3.125 uM): 70.7% and 70.8%
MESO1 viability (%) ([3]; conc 6.25 uM): 70.6% and 74.9%
MESO1 viability (%) ([3]; conc 12.5 uM): 61.9% and 67.0%
MESO1 viability (%) ([3]; conc 25 uM): 64.2% and 64.1%
MESO1 viability (%) ([3]; conc 50 uM): 0.7% and 0.8%
